US10183015B2, “Heterocyclic compounds and methods of use” (Medivation Technologies LLC, priority 2015, dated 2019)
Where “and” joins values, the source holds several entries; their conditions need not be identical. Equal values may be shown once.

Key:
Assay type in all cases: in vivo
[1] = tested on: diet-induced NASH obese insulin resistant mice; experiment: Diet-induced NASH (DIN) obese insulin-resistant mouse model: plasma ALT and AST; settings: plasma; for ALAT, days of treatment 70 / ASAT, days of treatment 70: day 70, 20 mg/kg
Experimental: (§1) Male C57Bl/6J mice (8 weeks old) were housed in enriched ventilated cages (31×12.5×12.7 cm) throughout the experimental phase. Animals' cages litters were changed at least once a week. Animal were housed 5 per cage on inverted 12-hour light cycle (at 09:00 am lights off), 22±2° C. and 55±10% relative humidity. The acclimation period was 20 days. During the acclimation period, all mice were fed a standard diet (RM1 (E) 801492, SDS) and tap water ad libitum. After the acclimation period, mice were fed with the DIN diet (60% fat, cholesterol enriched) and fructose-enriched tap water ad libitum until the end of the experiment.
(§2) At 6 weeks of diet, mice were 4-hour fasted (09:00 am to 1:00 pm) and blood (150 μl/EDTA) was collected at 01:00 pm by retro-orbital bleeding under isoflurane anesthesia. Mice were then allocated in 2 homogenous groups (n=12/group) according to their plasma levels of ALT (average levels: 685U/L), AST (average levels: 627U/L) and HOMA-IR index (average value: 4.7), into 2 homogenous groups (see values at day 0 in Tables 15A and 15B ALT/AST and Tables 16A and 16B for HOMA-IR). Mice were then treated once daily by oral gavage with vehicle (Group 1) or Compound #37 at 20 mg/kg (Group 2) for 70 days.
To investigate whether Compound #37 improves pre-existing steatosis/NASH pathology, a study was conducted using a 16-week diet-induced NASH mouse model. In this model, mice develop steatosis that progresses with inflammation and fibrosis that mimic many of the observed pathologies in human nonalcoholic fatty liver disease (NAFLD) and NASH (Hebbard & George, 2010). For 6 weeks, mice were fed a high-fat, high-cholesterol diet and provided drinking water containing fructose to induce liver pathology (Charlton et al, 2011). After 6 weeks, the mice were divided into 2 groups with similar mean aspartate aminotransferase (AST) and alanine aminotransferase (ALT) values (n=12 mice), although it should be noted that AST and ALT concentrations within both groups were higher and with greater variability than anticipated (e.g., mean ALT 677 U/L [SD, 401 U/L] in the vehicle control group and 693 U/L [SD, 365 U/L] in the Compound #37 group). After the animals were divided into 2 groups, the diet was continued for 10 additional weeks during which time 1 group received vehicle and the other was treated with 20 mg/kg/day Compound #37.

SCD1 = experiment: DIN mouse model: hepatic SCD1 gene expression; design: key to 2^DDct: expression relative to vehicle group, normalized to 18S; settings: for 2^DDct / DDct / Dct / SCD1: Gene Expression: SCD1, 20 mg/kg group; for 18S: Gene Expression: SCD1 table, 18S reference, 20 mg/kg group
Experimental: (§3) Gene expression analysis. Hepatic expression levels of genes involved in lipid metabolism (FAS, SREBP1, ACC1, SCD1), cholesterol metabolism (HMG-CoAR, LDLR), SREBP proteolysis (SCAP, INSIG1), ER stress (PERK), oxidative stress (NRF2), inflammation (MCP-1), and fibrosis (collagen 1α1) were quantified by RTqPCR. Expression level was normalized to 18S gene expression and relative expression to vehicle group was calculated with the […] method.
as §1, §2
(§4) Hepatic expression levels of genes involved in lipid (FAS, SREBP1, ACC1, SCD1), cholesterol metabolism (HMG-CoAR, LDLR), in SREBP proteolysis (SCAP, INSIG1), in ER stress (PERK), oxidative stress (NRF2), and inflammation (MCP-1) were not changed. However, expression of collagen 1α1, involved in liver fibrosis, was reduced by 66% in mice treated with Compound #37 (p<0.05 vs. vehicle).

SCAP = experiment: DIN mouse model: hepatic SCAP gene expression; design: key to 2^DDct: expression relative to vehicle group, normalized to 18S; settings: 20 mg/kg group; for 18S: Gene Expression: SCAP table, 18S reference; for 2^DDct / DDct / Dct / SCAP: Gene Expression: SCAP
Experimental: as §3, §1, §2, §4

[2] = day 56, 20 mg/kg, individual animals

With `CC(C)Cc1cc(-c2nc(-c3ccc(NS(=O)(=O)C(F)(F)F)cc3Cl)cs2)ccn1` [Compound 37, N-(3-chloro-4-(2-(2-isobutylpyridin-4-yl)thiazol-4-yl)phenyl)-1,1,1-trifluoromethanesulfonamide] the “ASAT, days of treatment 56” value ([1]; day 56, 20 mg/kg, group mean, n 11) was 126 U/L, the “ALAT, days of treatment 56” value [1, 2] was 276 U/L and 80 U/L and 48 U/L and 68 U/L and 52 U/L and 54 U/L and 112 U/L and 130 U/L and 534 U/L and 70 U/L and 74 U/L and the “ASAT, days of treatment 56” value [1, 2] was 346 U/L and 122 U/L and 92 U/L and 108 U/L and 60 U/L and 96 U/L and 132 U/L and 112 U/L and 182 U/L and 130 U/L and 164 U/L. The “ALAT, days of treatment 70” value ([1]; group mean, n 11) was 413 U/L, the “ASAT, days of treatment 70” value ([1]; group mean, n 11) was 281 U/L and the “ALAT, days of treatment 70” value ([1]; individual animals) was 364 U/L and 1030 U/L and 326 U/L and 372 U/L and 210 U/L and 342 U/L and 1150 U/L and 358 U/L and 142 U/L (2×) and 104 U/L. The “ASAT, days of treatment 70” value ([1]; individual animals) was 258 U/L and 648 U/L and 162 U/L and 206 U/L and 180 U/L and 160 U/L and 524 U/L and 376 U/L and 182 U/L and 198 U/L and 192 U/L, the “2^DDct” value (SCD1; individual animal) was 1.76 and 2.30 and 0.58 and 0.87 and 0.84 and 1.40 and 1.54 and 1.64 and 0.61 and 0.42 and 2.57 and the DDct (SCD1; individual animal) was −0.81 and −1.20 and 0.78 and 0.20 and 0.26 and −0.48 and −0.62 and −0.71 and 0.72 and 1.25 and −1.36. For the same molecule, the Dct (SCD1; individual animal) was 4.5 and 4.11 and 6.09 and 5.51 and 5.57 and 4.83 and 4.69 and 4.6 and 6.03 and 6.56 and 3.95, the SCD1 (SCD1; individual animal) was 17.05 and 16.66 and 18.93 and 17.94 and 17.92 and 17.42 and 16.42 and 17.11 and 17.53 and 18.11 and 16.3 and the “2^DDct” value (SCD1; mean, n 11) was 1.32. The DDct (SCD1; mean, n 11) was −0.18, the Dct (SCD1; mean, n 11) was 5.1 and the SCD1 (SCD1; mean, n 11) was 17.4. The 18S (SCD1; individual animal, 20 mg/kg) was 12.55 (2×) and 12.84 and 12.43 and 12.35 (2×) and 12.59 and 11.73 and 12.51 and 11.5 and 11.55, the 18S (SCD1; mean, n 11) was 12.3 and the 18S (SCAP; individual animal, 20 mg/kg) was 12.55 (2×) and 12.84 and 12.43 and 12.35 (2×) and 12.59 and 11.73 and 12.51 and 11.5 and 11.55. The 18S (SCAP; mean, n 11) was 12.3, the “2^DDct” value (SCAP; individual animal, 20 mg/kg) was 1.37 and 1.72 (2×) and 0.65 and 0.71 and 0.91 and 1.46 and 1.39 and 0.64 and 0.59 and 1.60 and the DDct (SCAP; individual animal, 20 mg/kg) was −0.45 and −0.78 (2×) and 0.63 and 0.49 and 0.13 and −0.54 and −0.47 and 0.65 and 0.77 and −0.68. The Dct (SCAP; individual animal, 20 mg/kg) was 11.61 and 11.28 (2×) and 12.69 and 12.55 and 12.19 and 11.52 and 11.59 and 12.71 and 12.83 and 11.38, the SCAP (SCAP; individual animal, 20 mg/kg) was 24.16 and 23.83 and 25.53 and 24.98 and 24.54 and 24.11 and 23.32 and 23.79 and 24.21 and 24.38 and 23.73 and the “2^DDct” value (SCAP; mean, n 11) was 1.16. For the same molecule, the DDct (SCAP; mean, n 11) was −0.10, the Dct (SCAP; mean, n 11) was 12.0 and the SCAP (SCAP; mean, n 11) was 24.2.
